Measurements reported in patent publication US20250129095A1, “ANNULATED 2-AMINO-3-CYANO THIOPHENES AND DERIVATIVES FOR THE TREATMENT OF CANCER” (Boehringer Ingelheim Int'l GmbH Corp., priority 2021, published 2025).

How the values were obtained:
Format in all cases: cell-based
NCI-H2122 cells = assay: NCI-H2122 CTG proliferation assay (120 h) (NSCLC, G12C); conditions: Homo sapiens
Method: The CTG assay is designed to measure quantitatively the proliferation of NCI-H2122 cells (ATCC CRL-5985), using the CellTiter Glow Assay Kit (Promega G7571). Cells are grown in RPMI medium (ATCC) supplemented with Fetal Calf Serum (Life Technologies, Gibco BRL, Cat. No. 10270-106). On “day 0” 200 NCI-H2122 cells are seeded in 60 μL RPMI ATCC+10% FCS+Penstrep in a black 384-well plate, flat and clear bottom (Greiner, PNr. 781091). Cells are then incubated in the plates at 37° C. in a CO2 incubator overnight. On day 1, compounds (10 mM stock in DMSO) are added with the ECHO acoustic liquid handler system (Beckman Coulter), including DMSO controls. Plates are incubated for 120 h, and cell viability is measured using CellTiter-Glo luminescent cell viability reagent (Promega product code G7570). Viability (stated as percent of control) is defined as relative luminescence units RLU of each well divided by the RLU of cells in DMSO controls. […] values are determined from viability measurements by non-linear regression using a four parameter model. • AsPC-1 CTG proliieradon assay (120 h) (pancreatic cancer, G12D)

KRAS G12D Ba/F3 = KRAS G12D Ba/F3 (Homo sapiens, UniProt P01116, G12D, cells depend on it); assay: Ba/F3 proliferation assay, KRAS G12D; conditions: 72 h, AlamarBlue, read-out: KRAS G12D Ba/F3 IC50
Sequence of KRAS G12D Ba/F3 (P01116 whole entry G12D, canonical isoform): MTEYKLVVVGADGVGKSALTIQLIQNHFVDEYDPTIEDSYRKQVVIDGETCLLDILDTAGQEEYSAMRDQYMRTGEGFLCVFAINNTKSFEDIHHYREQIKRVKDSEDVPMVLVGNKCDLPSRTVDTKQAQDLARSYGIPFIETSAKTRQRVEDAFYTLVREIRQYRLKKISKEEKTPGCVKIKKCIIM
Method: Plasmids containing KRASG12 mutants(i.e. G12D, G12C, G12V) are obtained from GeneScript. To generate KRASG12-dependent Ba/F3 models, Ba/F3 cells are transduced with retroviruses containing vectors that harbor KRASG12 isoforms. Platinum-E cells (Cell Biolabs) are used for retrovirus packaging. Retrovirus is added to Ba/F3 cells. To ensure infection, 4 μg/mL polybrene is added and cells are spinfected. […] Cells with an infection efficiency of 10% to 20% are further cultivated and puromycin selection with 1 μg/mL is initiated. As a control, parental Ba/F3 cells are used to show selection status. Selection is considered successful when parental Ba/F3 cells cultures died. To evaluate the transforming potential of KRASG12 mutations, the growth medium is no longer supplemented with IL-3. Ba/F3 cells harboring the empty vector are used as a control. Approximately ten days before conducting the experiments, puromycin is left out.
Compounds are added using an Access Labcyte Workstation with a Labcyte Echo 550 or 555 accoustic dispenser. All treatments are performed in technical duplicates. […] AlamarBlue™ (ThermoFisher), a viability stain, is added and fluorescence measured in the PerkinElmer Envision HTS Multilabel Reader. The raw data are imported into and analyzed with the Boehringer Ingelheim proprietary software MegaLab (curve fitting based on the program PRISM, GraphPad Inc.).

AsPC-1 cells = assay: AsPC-1 CTG proliferation assay (120 h) (pancreatic cancer, G12D); conditions: Homo sapiens, ASPC1
Method: The CTG assay is designed to measure quantitatively the proliferation of AsPC-1 cells (ATCC CRL-5985), using the CellTiter Glow Assay Kit (Promega G7571). Cells are grown in RPMI medium (ATCC) supplemented with Fetal Calf Serum (Life Technologies, Gibco BRL, Cat. No. 10270-106). On “day 0” 2000 AsPC-1 cells are seeded in 60 μL RPMI ATCC+10% FCS+ Penstrep in a 384-well plate, flat and clear bottom (Greiner, PNr. 781091). Cells are then incubated in the plates at 37° C. in a CO2 incubator overnight. On day 1, compounds (10 mM stock in DMSO) are added with the ECHO acoustic liquid handler system (Beckman Coulter), including DMSO controls. Plates are incubated for 120 h, and cell viability is measured using CellTiter-Glo luminescent cell viability reagent (Promega product code G7570). Viability (stated as percent of control) is defined as relative luminescence units RLU of each well divided by the RLU of cells in DMSO controls.

SK-CO-1 cells = assay: SK-CO-1 CTG proliferation assay (120 h) (CRC, G12V); conditions: Homo sapiens
Method: SK-CO-1 cells (ATCC HTB-39) are dispensed into 384-well plates, flat and clear bottom (Greiner, PNr. 781091) at a density of 500 cells per well in 60 μL EMEM (Sigma M5650)+10% Fetal Calf Serum (HyClone, PNr.: SH30084.03) and incubated at 37° C. in a CO2 incubator overnight. The next day, compounds (10 mM stock in DMSO) are added with the ECHO acoustic liquid handler system (Beckman Coulter), including DMSO controls. Plates are incubated for 120 h, and cell viability is measured using CellTiter-Glo luminescent cell viability reagent (Promega product code G7570). Viability (stated as percent of control) is defined as relative luminescence units RLU of each well divided by the RLU of cells in DMSO controls.

SMILES | IC50 (NCI-H2122 cells) | GI50 (KRAS G12D Ba/F3) | IC50 (AsPC-1 cells) | IC50 (SK-CO-1 cells)
C[C@H](Oc1cc(Nc2ccccn2)nc(-c2onc3c2CCC[C@@]32CCCc3sc(N)c(C#N)c32)n1)[C@@H]1CCCN1C [Example I-6] | 1120 nM | 47 nM | 3360 nM | 273 nM
C[C@H](Oc1cc(Nc2ncccn2)nc(-c2noc3c2CCC[C@@]32CCCc3sc(N)c(C#N)c32)n1)[C@@H]1CCCN1C [II-17] | 1650 nM | 33 nM | 2720 nM | 60 nM

More lines, now with the values ahead:

IC50 (NCI-H2122 cells) | GI50 (KRAS G12D Ba/F3) | IC50 (AsPC-1 cells) | IC50 (SK-CO-1 cells) | SMILES
1340 nM | 388 nM | 1720 nM | 774 nM | C[C@H](Oc1cc(O[C@H]2CNC(C)(C)C2)nc(-c2noc3c2CCC[C@@]32CCCc3sc(N)c(C#N)c32)n1)[C@@H]1CCCN1C (single isomer, unassigned) [II-8]
1650 nM | 16 nM | 1760 nM | 88 nM | C[C@H](Oc1cc(OCCO)nc(-c2noc3c2CCC[C@@]32CCCc3sc(N)c(C#N)c32)n1)[C@@H]1CCCN1C [II-6]
1250 nM | 5 nM | 49 nM | 171 nM | C[C@H](Oc1cc(O[C@@H]2CNC2(C)C)nc(-c2noc3c2CCC[C@@]32CCCc3sc(N)c(C#N)c32)n1)[C@@H]1CCCN1C [II-9]
